# Values of other authors, collected in patent US6545056B1, “Aryl nitrone therapeutics and methods for treating inflammatory bowel disease” (Centaur Pharmaceuticals, Inc., priority 1999, dated 2003).
# Test system: senescence-accelerated mice
smiles,measurement,value
"CC(C)(C)/[N+]([O-])=C/c1ccccc1 [PBN, α-phenyl-t-butyl nitone]",increase of the life span,one third
